Results taken from patent US20130190407A1, “CALCIUM RECEPTOR-ACTIVE MOLECULES” (NPS Pharmaceuticals, Inc., priority 1991, published 2013).

Columns and labels:
[1] = target: T1, parathyroid cell calcium receptor (Bos taurus, UniProt P35384); experiment: Cl- current in Xenopus oocytes injected with bovine parathyroid cell poly(A)+-mRNA; type: cell-based; set-up: Whole pieces of gland were used to prepare mRNA that directs the expression of the calcium receptor in Xenopus oocytes; expressed in transfected cells; host or cells: Xenopus laevis oocytes injected with total poly(A)+ mRNA from bovine parathyroid glands; details: 30 μM
T1 sequence (P35384 20-1085): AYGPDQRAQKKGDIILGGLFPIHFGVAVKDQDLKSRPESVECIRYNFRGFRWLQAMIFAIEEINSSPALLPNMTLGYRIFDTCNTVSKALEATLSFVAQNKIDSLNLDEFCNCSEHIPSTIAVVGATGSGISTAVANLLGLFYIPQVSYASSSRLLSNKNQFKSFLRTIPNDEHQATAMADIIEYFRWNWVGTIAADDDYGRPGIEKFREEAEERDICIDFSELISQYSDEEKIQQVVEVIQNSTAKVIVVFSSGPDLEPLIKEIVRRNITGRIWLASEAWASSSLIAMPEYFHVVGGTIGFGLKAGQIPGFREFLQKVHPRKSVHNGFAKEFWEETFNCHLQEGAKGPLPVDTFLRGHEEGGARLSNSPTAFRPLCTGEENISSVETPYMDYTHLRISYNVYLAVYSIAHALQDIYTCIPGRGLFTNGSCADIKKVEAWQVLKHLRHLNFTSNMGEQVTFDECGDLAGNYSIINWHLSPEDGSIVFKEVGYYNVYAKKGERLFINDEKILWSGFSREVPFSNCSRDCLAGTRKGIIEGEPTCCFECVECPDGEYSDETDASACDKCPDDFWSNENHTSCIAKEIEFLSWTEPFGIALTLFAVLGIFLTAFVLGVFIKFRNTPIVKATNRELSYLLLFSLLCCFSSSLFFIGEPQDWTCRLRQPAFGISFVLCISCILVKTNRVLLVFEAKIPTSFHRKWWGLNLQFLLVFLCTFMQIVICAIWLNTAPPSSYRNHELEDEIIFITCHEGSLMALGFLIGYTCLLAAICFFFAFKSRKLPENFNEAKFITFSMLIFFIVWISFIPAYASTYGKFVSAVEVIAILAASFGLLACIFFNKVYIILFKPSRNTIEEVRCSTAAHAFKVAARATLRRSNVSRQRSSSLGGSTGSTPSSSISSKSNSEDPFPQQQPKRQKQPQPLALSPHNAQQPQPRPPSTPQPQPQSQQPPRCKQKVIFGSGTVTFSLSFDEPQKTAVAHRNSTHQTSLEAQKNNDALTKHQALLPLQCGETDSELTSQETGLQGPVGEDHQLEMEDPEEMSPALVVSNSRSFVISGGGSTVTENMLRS
Procedure: (§1) Following incubation, an oocyte was placed into a 100-μl plastic chamber and superfused with MBS at a flow rate of 0.5 ml/min using a peristaltic pump. Test molecules or inorganic polycations were added by rapidly moving the tubing into different buffers. Recording and current-passing electrodes were constructed from thin-wall capillary tubing pulled to a resistance of 1-3 Mohms and filled with 3 M KCl. […] Currents were recorded directly onto a strip chart recorder.
Dissociated bovine parathyroid cells were used to further explore the mechanism of action of NPS R-467 at the receptor level. […] It does, however, elicit responses in parathyroid cells and in oocytes when a small amount of extracellular Ca^2+ is present.

thyroidectomized animals = experiment: Hypocalcemic response in thyroidectomized rats; type: in vivo, rat; details: 3 to 100 mg/kg p.o.
Excerpt: In subsequent studies, rats received a thyroidectomy (parathyroid glands intact). This surgical procedure effectively removed the C-cells secreting calcitonin and therefore enabled the relative contributions of PTH and calcitonin to the hypocalcemic effect of this compound to be determined. […] The only difference was that the rate of onset of the hypocalcemic response was somewhat delayed in thyroidectomized animals. […] Stimulatory effects of this compound on calcitonin secretion increases the rate of onset, but not the extent, of hypocalcemia.

calcium receptor = target: T2, calcium receptor (Homo sapiens, UniProt P41180); experiment: Cl- current in Xenopus oocytes injected with human parathyroid cell mRNA; type: cell-based
T2 construct: poly(A)^+-enriched mRNA from human parathyroid tissue (hyperplastic glands from a case of secondary HPT); expressed in transfected cells; host or cells: Xenopus laevis oocytes injected with poly(A)+ mRNA from hyperplastic human parathyroid glands
T2 sequence (P41180 20-1078): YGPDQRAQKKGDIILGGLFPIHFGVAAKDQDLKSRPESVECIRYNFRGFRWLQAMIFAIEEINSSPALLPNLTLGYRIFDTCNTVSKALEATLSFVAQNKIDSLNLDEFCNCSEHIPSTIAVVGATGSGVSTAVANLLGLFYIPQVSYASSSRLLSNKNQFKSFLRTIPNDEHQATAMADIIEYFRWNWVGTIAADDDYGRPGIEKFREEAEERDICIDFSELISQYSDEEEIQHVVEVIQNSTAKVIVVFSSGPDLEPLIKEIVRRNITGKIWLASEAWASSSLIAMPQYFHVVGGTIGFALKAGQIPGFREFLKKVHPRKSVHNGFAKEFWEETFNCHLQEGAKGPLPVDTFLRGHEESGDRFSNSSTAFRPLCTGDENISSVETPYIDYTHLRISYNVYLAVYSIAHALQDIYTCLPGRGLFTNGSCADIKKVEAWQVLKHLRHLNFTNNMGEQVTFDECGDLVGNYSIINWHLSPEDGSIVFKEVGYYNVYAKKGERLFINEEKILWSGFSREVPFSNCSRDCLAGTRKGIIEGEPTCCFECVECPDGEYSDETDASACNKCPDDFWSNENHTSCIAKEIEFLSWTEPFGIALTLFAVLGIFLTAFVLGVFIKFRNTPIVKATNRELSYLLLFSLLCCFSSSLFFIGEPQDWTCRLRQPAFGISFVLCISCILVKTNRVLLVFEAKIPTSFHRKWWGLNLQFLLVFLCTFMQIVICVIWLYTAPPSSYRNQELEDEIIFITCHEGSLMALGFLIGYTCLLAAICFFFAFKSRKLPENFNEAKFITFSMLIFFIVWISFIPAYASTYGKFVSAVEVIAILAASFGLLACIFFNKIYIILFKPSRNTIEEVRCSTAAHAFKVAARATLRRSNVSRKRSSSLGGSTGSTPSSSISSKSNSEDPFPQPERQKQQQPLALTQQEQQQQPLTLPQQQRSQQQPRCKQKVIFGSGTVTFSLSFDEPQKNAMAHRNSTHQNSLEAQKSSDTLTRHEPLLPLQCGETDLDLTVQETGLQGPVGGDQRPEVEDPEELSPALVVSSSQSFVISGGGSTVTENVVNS
Procedure: Oocytes were injected with poly(A)^+-enriched mRNA from human parathyroid tissue (hyperplastic glands from a case of secondary HPT).
as §1
Using this screen allows one to test for an action directly on the calcium receptor. Oocytes expressing the calcium receptor also responded to several molecules active on intact parathyroid cells when screened as follows. […] This offers rather compelling evidence showing that these molecules act on the calcium receptor or on some other protein intimately associated with its function.

With `COc1cccc([C@@H](C)NCCCc2ccccc2)c1` (single isomer, unassigned) [NPS R-467] the Cl- current [1] was “rapid increase in Cl^− current”.
For `COc1cccc([C@@H](C)NCCCc2ccccc2Cl)c1` [NPS R-568, (R)-(+)-N-[3-(2-chlorophenyl)propyl]-α-methyl-3-methoxybenzylamine], the hypocalcemic response (thyroidectomized animals) was “hypocalcemic response equal in magnitude to that produced in sham-operated animals”.
In the case of `NC[C@@H]1O[C@H](O[C@H]2[C@@H](O)[C@H](O[C@@H]3[C@@H](O)[C@H](N)C[C@H](N)[C@H]3O[C@H]3O[C@H](CN)[C@@H](O)[C@H](O)[C@H]3N)O[C@@H]2CO)[C@H](N)[C@@H](O)[C@@H]1O` [Neomycin B, neomycin B], the “change in current in water-injected oocytes” value (calcium receptor; 10 mM, five water-injected oocytes) is reported as “failed to cause any change in the current” and the “mobilization of intracellular Ca2+ in oocytes” value (calcium receptor; hexacyclen 135 μM, neomycin 100 μM, NPS 382 5 mM) is reported as “effective”.
